From PubChem BioAssay (NCI)
Values joined by “and” are separate entries in the source; they are usually repeats but may differ in a detail not shown here. Equal entries are not always repeated.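 Exposure lasted 48 hours, with cells grown in 96-well plates and compounds tested at five concentrations. The concentration for 50% growth inhibition is given as GI50. At the TGI there is no net growth.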

Assays:
Experiment in all cases: NCI tumour cell line growth inhibition, 48 h
[1] = system: SW-620 colon
[2] = system: SNB-19 CNS
[3] = system: EKVX NSCLC
[4] = system: OVCAR-3 ovarian
[5] = system: K-562 leukemia
[6] = system: HT29 colon
[7] = system: MDA-MB-231 breast
[8] = system: NCI-H460 lung
[9] = system: SF-268 CNS
[10] = system: SK-MEL-28 melanoma

For `COc1ccc(NC(=O)c2ccc(C(F)(F)F)nc2Nc2ccc(Cl)cc2C)cc1Cl`, the GI50 [1] was 4.09 µM, the TGI [1] was 14.7 µM and the GI50 [2] was 5.45 µM. It also gave a TGI [2] of 19.7 µM, a GI50 [3] of 3.47 µM and a TGI [3] of 16.5 µM. The GI50 [4] was 3.15 µM, the TGI [4] was 16.2 µM and the GI50 [5] was 2.42 µM. For the same compound, the TGI [5] was 10.6 µM, the GI50 [6] was 3.57 µM and the TGI [6] was 14 µM. The GI50 [7] was 1.64 µM, the TGI [7] was 6.82 µM and the GI50 [8] was 2.9 µM. The TGI [8] was 12.1 µM, the GI50 [9] was 5.4 µM and the TGI [9] was 21.3 µM. It also gave a GI50 [10] of 5.2 µM and a TGI [10] of 16.9 µM.
`O=C(O)c1nn(-c2ccc(Cl)cc2)c2c1C(=O)c1ccccc1C2=O` gave a TGI [1] of over 100 µM, a TGI [2] of over 100 µM and a TGI [3] of over 100 µM. The TGI [4] was over 100 µM, the TGI [5] was over 100 µM and the TGI [6] was over 100 µM. It also gave a TGI [7] of over 100 µM, a TGI [8] of over 100 µM and a TGI [9] of over 100 µM. The TGI [10] was over 100 µM.
Compound `CC1(C)CC[C@]2(C(=O)NCCNCCN)CC[C@]3(C)C(=CC[C@@H]4[C@@]5(C)CCC(=O)C(C)(C)[C@@H]5CC[C@]43C)[C@@H]2C1` has a GI50 [1] of 1.8 µM, a TGI [1] of 3.56 µM and a GI50 [2] of 1.73 µM. The TGI [2] was 3.23 µM, the GI50 [3] was 1.74 µM and the TGI [3] was 3.67 µM. It also gave a GI50 [4] of 1.85 µM, a TGI [4] of 3.29 µM and a GI50 [5] of 2.74 µM. For the same compound, the TGI [5] was over 100 µM, the GI50 [6] was 1.96 µM and the TGI [6] was 4.43 µM. It also gave a GI50 [7] of 1.82 µM, a TGI [7] of 3.35 µM and a GI50 [8] of 1.86 µM. It also gave a TGI [8] of 3.51 µM, a GI50 [9] of 1.89 µM and a TGI [9] of 4.06 µM. The GI50 [10] was 1.75 µM and the TGI [10] was 3.2 µM.
`CN1CCN(c2ccncc2S(=O)(=O)N2CCN(C)CC2)CC1` gave a TGI [1] of over 100 µM, a TGI [2] of over 100 µM and a TGI [3] of over 100 µM. For the same compound, the TGI [4] was over 100 µM, the TGI [5] was over 100 µM and the TGI [6] was over 100 µM. It also gave a TGI [7] of over 100 µM, a TGI [8] of over 100 µM and a TGI [9] of over 100 µM. For the same compound, the TGI [10] was over 100 µM.
`Cn1cc(-c2ncnc3ccc(-c4cnc(Cl)c(NS(C)(=O)=O)c4)cc23)c2ccccc21` gave a GI50 [1] of 1.28 µM, a TGI [1] of over 100 µM and a GI50 [2] of 1.67 µM. The TGI [2] was 23.4 µM, the GI50 [3] was 0.598 µM and the GI50 [4] was 0.617 µM. It also gave a TGI [4] of 13.8 µM, a GI50 [5] of 2.7 µM and a TGI [5] of over 100 µM. For the same compound, the GI50 [6] was 0.541 µM, the TGI [6] was over 100 µM and the GI50 [7] was 1.84 µM. It also gave a TGI [7] of 26.4 µM, a GI50 [8] of 0.365 µM and a TGI [8] of over 100 µM. The GI50 [9] was 1.09 µM, the TGI [9] was over 100 µM and the GI50 [10] was 0.306 µM. For the same compound, the TGI [10] was 6.89 µM.
Compound `NC(CCl)=NCC12CC3CC(CC(C3)C1)C2` has a GI50 [1] of 0.338 µM, a TGI [1] of 4.37 µM and a GI50 [2] of 10 µM. The TGI [2] was 23 µM, the GI50 [3] was 2.23 µM and the TGI [3] was 21.1 µM. For the same compound, the GI50 [4] was 0.687 µM, the TGI [4] was 7.23 µM and the GI50 [5] was 0.5 µM. It also gave a TGI [5] of 5.21 µM, a GI50 [6] of 0.458 µM and a TGI [6] of 2.93 µM. The GI50 [7] was 1.75 µM, the TGI [7] was 11.3 µM and the GI50 [8] was 0.44 µM. The TGI [8] was 4.6 µM, the GI50 [9] was 1.9 µM and the TGI [9] was 12.1 µM. For the same compound, the GI50 [10] was 1.58 µM and the TGI [10] was 15.5 µM.
`O=C(N/N=C/c1ccc([N+](=O)[O-])cc1)c1ccccc1Nc1ccnc(C(F)(F)F)c1` gave a GI50 [1] of 13.3 µM, a TGI [1] of 88.1 µM and a GI50 [2] of 23.9 µM. For the same compound, the TGI [2] was over 100 µM, the GI50 [3] was 14.6 µM and the TGI [3] was 59.5 µM. For the same compound, the GI50 [4] was 4.54 µM, the TGI [4] was over 100 µM and the GI50 [5] was 11 µM. For the same compound, the TGI [5] was over 100 µM, the GI50 [6] was 30.7 µM and the TGI [6] was over 100 µM. The GI50 [7] was 21.7 µM, the TGI [7] was 77.1 µM and the GI50 [8] was 21.3 µM. For the same compound, the TGI [8] was 52.9 µM, the GI50 [9] was 10.5 µM and the TGI [9] was 82.8 µM. It also gave a GI50 [10] of 14.8 µM and a TGI [10] of 64.2 µM.
For `CCC(CO)Nc1nc(NCc2ccccc2)c2n[nH]c(C(C)C)c2n1` (configuration not stated), the GI50 [1] was 4.76 µM, the TGI [1] was 18 µM and the GI50 [2] was 15.8 µM. It also gave a TGI [2] of 30.5 µM, a GI50 [3] of 12.1 µM and a TGI [3] of 27.4 µM. For the same compound, the GI50 [4] was 7.32 µM, the TGI [4] was 22.7 µM and the GI50 [5] was 5.96 µM. The TGI [5] was 34.4 µM, the GI50 [6] was 3.88 µM and the TGI [6] was 27.8 µM. It also gave a GI50 [7] of 15.8 µM, a TGI [7] of 35.3 µM and a GI50 [8] of 4.94 µM. It also gave a TGI [8] of 19.4 µM, a GI50 [9] of 10.7 µM and a TGI [9] of 26.4 µM. The GI50 [10] was 10.5 µM and the TGI [10] was 27.7 µM.
`O=C1/C(=C/c2ccc(Cl)cc2)N=C(c2ccccc2)N1c1cc(C(F)(F)F)ccc1Cl` gave a GI50 [1] of 28.9 µM, a TGI [1] of over 100 µM and a GI50 [2] of 36.4 µM. The TGI [2] was over 100 µM, the GI50 [3] was 21.9 µM and the TGI [3] was over 100 µM. The GI50 [4] was 17.4 µM, the TGI [4] was 69 µM and the GI50 [5] was 20.1 µM. The TGI [5] was 79.9 µM, the GI50 [6] was 24.1 µM and the TGI [6] was 73.5 µM. For the same compound, the GI50 [7] was 16 µM, the TGI [7] was 55.8 µM and the GI50 [8] was 19.4 µM. It also gave a TGI [8] of 61.7 µM, a GI50 [9] of 28.8 µM and a TGI [9] of over 100 µM. For the same compound, the GI50 [10] was 39.1 µM and the TGI [10] was over 100 µM.
In the case of `C[C@]1(c2nc3c(C(N)=O)cccc3[nH]2)CCCN1`, the GI50 [1] is reported as 89.4 µM and > 100 µM, the TGI [1] is reported as over 100 µM and the GI50 [2] is reported as over 100 µM. The TGI [2] was over 100 µM, the GI50 [3] was over 100 µM and the TGI [3] was over 100 µM. The GI50 [4] was 53.6 µM and > 100 µM, the TGI [4] was over 100 µM and the GI50 [5] was over 100 µM. The TGI [5] was over 100 µM, the GI50 [6] was 61.5 µM and > 100 µM and the TGI [6] was over 100 µM. The GI50 [7] was 98.3 µM and > 100 µM, the TGI [7] was over 100 µM and the GI50 [8] was 35.5 µM and 48.6 µM. For the same compound, the TGI [8] was over 100 µM, the GI50 [9] was over 100 µM and the TGI [9] was over 100 µM. The GI50 [10] was 75.1 µM and > 100 µM and the TGI [10] was over 100 µM.
`C/C(COc1ccc2oc(-c3ccccc3)cc(=O)c2c1)=N\O` was tested, and the GI50 [1] was 26.2 µM, the TGI [1] was over 100 µM and the GI50 [2] was 26.7 µM. The TGI [2] was over 100 µM, the GI50 [3] was 2.89 µM and the TGI [3] was 26.6 µM. It also gave a GI50 [4] of 7.39 µM, a TGI [4] of 54.2 µM and a GI50 [5] of 70.7 µM. For the same compound, the TGI [5] was over 100 µM, the GI50 [6] was 22.7 µM and the TGI [6] was over 100 µM. The GI50 [7] was 14.1 µM, the TGI [7] was 36.4 µM and the GI50 [8] was 14.3 µM. For the same compound, the TGI [8] was over 100 µM, the GI50 [9] was 24.3 µM and the TGI [9] was over 100 µM. The GI50 [10] was 23.1 µM and the TGI [10] was over 100 µM.
For `Cn1cnc(SC2=CC(=O)C=C3S[C@H]4C[C@@]23c2c(c(O)c3c5c2=NCCC=5C=N3)N4)c1CC(N)C(=O)O` (some centres not stated), the TGI [1] was 9.52 µM, the GI50 [2] was 19.3 µM and the TGI [2] was 33.5 µM. It also gave a GI50 [3] of 19.3 µM, a TGI [3] of 34.3 µM and a GI50 [4] of 3.24 µM. It also gave a TGI [4] of 10.7 µM, a TGI [5] of over 87 µM and a GI50 [6] of 2.18 µM. It also gave a TGI [6] of 11.7 µM, a GI50 [7] of 6.6 µM and a TGI [7] of 20.3 µM. It also gave a GI50 [8] of 16.2 µM, a TGI [8] of 31.6 µM and a GI50 [9] of 12.4 µM. For the same compound, the TGI [9] was 26.1 µM, the GI50 [10] was 16.2 µM and the TGI [10] was 30.4 µM.
`CCCCCCCC(=O)Nc1nc2[nH]c(CN3CCN(Cc4cccc(I)c4)CC3)c(CN3CCN(Cc4cccc(I)c4)CC3)c2c(=O)[nH]1` gave a GI50 [1] of 0.848 µM, a TGI [1] of 1.63 µM and a GI50 [2] of 0.858 µM. For the same compound, the TGI [2] was 1.62 µM, the GI50 [3] was 0.835 µM and the TGI [3] was 1.67 µM. The GI50 [4] was 0.879 µM, the TGI [4] was 1.62 µM and the GI50 [5] was 0.455 µM. For the same compound, the TGI [5] was 10.8 µM, the GI50 [6] was 0.998 µM and the TGI [6] was 2.13 µM. It also gave a GI50 [7] of 0.875 µM, a TGI [7] of 1.65 µM and a GI50 [8] of 0.925 µM. The TGI [8] was 1.76 µM, the GI50 [9] was 0.829 µM and the TGI [9] was 1.65 µM. For the same compound, the GI50 [10] was 0.937 µM and the TGI [10] was 1.7 µM.
